Test results published in patent US5760036A, “Aminediol protease inhibitors” (E. R. Squibb & Sons, Inc., priority 1995, dated 1998).
Where two headings read alike, the source gives them in different places.

Columns and labels:
[1] = target: T1, HIV protease (Human immunodeficiency virus type 1 group M subtype B, UniProt P04585); experiment: HIV Protease Assay; assay type: biochemical
T1 construct: and purified protease
How it was run: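 Purified protease cleaved 450 μM octapeptide substrate in 50 mM sodium acetate pH 5.5 with 100 μg/ml BSA for 30 minutes at 37° C; product analyzed by reverse-phase HPLC at UV220 after H3PO4 quench. Inhibitors tested at final 10 μM with 4% DMSO.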

[2] = test system: RF strain of HIV (CEM-SS cells); experiment: Cell Culture Anti-HIV Activity (cell viability, formazan); assay type: cell-based; conditions: CEM-SS cells, RF strain of HIV, multiplicity of infection 0.04, 6 days at 37° C., 450 nm, read-out: HIV (CEM Cells) IC50
How it was run: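 CEM-SS cells (5000/well) infected with HIV RF at MOI 0.04, exposed to half-log serial compound dilutions, incubated 6 days at 37° C. Viability read by tetrazolium reduction to formazan, absorbance 450 nm. IC50 is the concentration raising formazan in infected cells to 50% of uninfected, drug-free cells.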

[3] = 10 μM inhibitor, 4% DMSO, 450 μM substrate, pH 5.5, 30 minutes at 37° C., RP-HPLC
[4] = Human immunodeficiency virus 1, CEM-SS, 144 h
[5] = pH 5.5, 10 μM inhibitor, 4% DMSO, 450 μM substrate, pH 5.5, 30 minutes at 37° C., RP-HPLC, read-out: HIV Protease % Inhibition at 10 μM

Structure (SMILES) | inhibition at 10 µM [1, 5] | IC50 [2, 4] | also measured
CC(C)(C)OC(=O)N[C@@H](Cc1ccccc1)[C@H](O)CNC[C@@H](O)[C@H](Cc1ccccc1)NC(=O)C1NC(=O)CC1(C)C (single isomer, unassigned) [Compound 267, [1S-[1R*,2S*(2S*,3R*)]]-[3-[[3-[[(3,3-Dimethyl-5-oxo-2-pyrrolidinyl)carbonyl]amino]-2-hydroxy-4-phenylbutyl]amino]-2-hydroxy-l-(phenylmethyl)propyl]carbamic acid, 1,1-dimethylethyl ester] | – | 180 nM | HIV Protease % Inhibition at 10 μM [1, 3]: 97%
CN1CCN(CCOc2ccc(C[C@H](NC(=O)OC(C)(C)C)[C@H](O)CNC[C@@H](O)[C@H](Cc3ccccc3)NC(=O)OC(C)(C)C)cc2)C1=O [Compound 363, [1S-[1R*,2S*(2S*,3R*)]]-[3-[[3-[[(1,1-Dimethylethoxy)carbonyl]amino]-2-hydroxy-4-[4-[2-(3-methyl-2-oxo-1-imidazolidinyl)-ethoxy]phenyl]butyl]amino]-2-hydroxy-1-(phenylmethyl)propyl]carbamic acid, 1,1-dimethylethyl ester] | – | 40 nM | inhibition at 10 µM ([1]; pH 5.5, read-out: HIV Protease % Inhibition at 10 μM): 99%
CC(C)(C)OC(=O)N[C@@H](Cc1ccccc1)[C@H](O)CNC[C@@H](O)[C@H](Cc1ccccc1)NC(=O)OCc1cccnc1 [Compound 256, [R-(R*,S*)]-[Iminobis[2-hydroxy-1-(phenylmethyl)-3,1-propanediyl)]biscarbamic acid. 1,1-dimethylethyl-3-pyridinylmethyl ester] | 88% | 1500 nM | –
C[C@H](NC(=O)OCc1ccccc1)C(=O)N[C@@H](Cc1ccccc1)[C@H](O)CNC[C@@H](O)[C@H](Cc1ccccc1)NC(=O)OC(C)(C)C (relative stereo) [Compound 243, [1R*,2S*(2S*,3R*)]-N-[3-[[3-[[(1,1-Dimethylethoxy)carbonyl]amino]-2-hydroxy-4-phenylbutyl]-2-hydroxy-1-(phenylmethyl)propyl]-N^2-[(phenylmethoxy)carbonyl]-L-alaninamide] | 99% | 80 nM | –
CC(C)(C)OC(=O)N[C@@H](Cc1ccccc1)[C@H](O)CNC[C@@H](O)[C@H](Cc1ccccc1)NC(=O)C(O)(CO)C(C)(C)C (single isomer, unassigned; isomer a) [Compound 366, [1S-[1R*,2S*(2S*,3R*)]]-[3-[[3-[[2-Hydroxy-2-(hydroxymethyl)-3.3-dimethyl-1-oxobutyl]amino]-2-hydroxy-4-phenylbutyl]amino]-2-hydroxy-1-(phenylmethyl)propyl]carbamic acid. 1.1-dimethylethyl ester, isomer A] | – | 9 nM | HIV Protease % Inhibition at 10 μM [1, 3]: 99%
CN(CC(O)[C@H](Cc1ccccc1)NC(=O)OC(C)(C)C)C[C@@H](O)[C@H](Cc1ccccc1)NC(=O)OC(C)(C)C (stereo partly drawn) [Compound 198, [1S-[1R*,2S*(3R*)]]-[3-[[3-[[(1,1-Dimethylethoxy)carbonyl]-amino]-2-hydroxy-4-phenylbutyl]-methylamino]-2-hydroxy-1-(phenylmethyl)propyl]-carbamic acid, 1,1-dimethylethyl ester] | 10% | > 14000 nM | –
CC(C)(C)OC(=O)N[C@@H](Cc1ccccc1)[C@H](O)CNC[C@@H](O)[C@H](Cc1ccc(OCCc2ccccn2)cc1)NC(=O)OC(C)(C)C [Compound 178, [1S-[1R*,2S*(2S*,3R*)]]-[3-[[3-[[(1,1-Dimethylethoxy)carbonyl]amino]-2-hydroxy-4-(4-[2-(2-pyridinyl)ethoxy]phenyl]butyl]amino]-2-hydroxy-1-(phenylmethyl)-propyl]carbamic acid, 1,1-dimethyl-ethyl ester] | 99% | 30 nM | –
CC(C)(C)OC(=O)N[C@@H](Cc1ccccc1)[C@H](O)CNC[C@@H](O)[C@H](Cc1ccccc1)NC(=O)C(O)C(C)(C)C (stereo partly drawn) [Compound 214] | 97% | 50 nM | –
CC(C)(C)OC(=O)N[C@@H](Cc1ccccc1)[C@H](O)CNC[C@@H](O)[C@H](Cc1ccc2ncccc2c1)NC(=O)OC(C)(C)C [Compound 31, [1S-[1R*,2S*(2S*,3R*)]]-[3-[[3-[[(1,1-Dimethylethoxy)-carbonyl]amino]-2-hydroxy-4-phenylbutyl]amino-2-hydroxy-1-(6-quinolinylmethyl)propyl]carbamic acid, 1,1-dimethylethyl ester] | 100% | 30 nM | –
CC(C)(C)OC(=O)N[C@@H](Cc1ccccc1)[C@H](O)CNC[C@@H](O)[C@H](Cc1ccccc1)NC(=O)C1(O)CCCC1(C)C (single isomer, unassigned; isomer b) [Compound 322, [1S-[1R*,2S*(2S*,3R*)]]-[3-[[3-[[2,2-Dimethyl-1-hydroxycyclopentyl)-carbonyl]amino]-2-hydroxy-4-phenylbutyl]amino]-2-hydroxy-1-(phenylmethyl)-propyl]carbamic acid, 1,1-dimethylethyl ester, isomer B] | – | – | HIV Protease % Inhibition at 10 μM [1]: 100%; IC50 [2]: 20 nM
CC(C)(C)NC(=S)N[C@@H](Cc1ccccc1)[C@H](O)CNC[C@@H](O)[C@H](Cc1ccccc1)NC(=O)OC(C)(C)C [Compound 137, [1S-[1R*,2S*(2S*,3R*)]]-[3-[[3-[[[(1,1-Dimethylethyl)amino]thioxomethyl]amino]-2-hydroxy-4-phenylbutyl]amino]-2-hydroxy-1-(phenylmethyl))propyl]carbamic acid, 1,1-dimethylethyl ester] | 92% | > 2600 nM | –
CC(C)(C)OC(=O)N[C@@H](Cc1ccccc1)[C@H](O)CNC[C@@H](O)[C@H](Cc1ccccc1)NC(=O)SC(C)(C)C [Compound 184, [1S-[1R*,2S*(2S*,3R*)]]-[3-[[3-[[[(1 1-Dimethylethyl)thio)carbonyl]amino]-2-hydroxy-4-phenylbutyl]amino]-2-hydroxy-1-(phenylmethyl)-propyl]carbamic acid, 1,1-dimethylethyl ester] | 99% | 1300 nM | –

Second part, led by results:

inhibition at 10 µM [1, 5] | Structure (SMILES) | IC50 [2, 4] | also measured
98% | CC(C)(CO)OC(=O)N[C@@H](Cc1ccccc1)[C@H](O)CNC[C@@H](O)[C@H](Cc1ccccc1)NC(=O)C1(O)CCCC1(C)C (single isomer, unassigned; isomer a) [Compound 368, [1S-[1R*,2S*(2S*,3R*)] -[3-[[3-[[(2,2-Dimethyl-1-hydroxycyclopentyl)-carbonyl]amino]-2-hydroxy-4-phenylbutyl]amino]-2-hydroxy-1-(phenylmethyl)propyl]carbamic acid, 2-hydroxy-1,1-dimethylethyl ester, isomer A] | 17 nM | –
100% | CC(C)[C@H](NC(=O)OCC1=Cc2ccccc2C1)C(=O)N[C@@H](Cc1ccccc1)[C@H](O)CNC[C@@H](O)[C@H](Cc1ccccc1)NC(=O)OC(C)(C)C (relative stereo) [Compound 280, [1R*, 2S* (2S*, 3R*)]-N-[3-[[3-[[(1,1-Dimethylethoxy)carbonyl]amino]-2-hydroxy-4-phenylbutyl]amino]-2-hydroxy-1-(phenylmethyl)propyl]-N^2-[[(1H-inden-2-yl)methoxy]carbonyl]-L-valinamide] | 50 nM | –
100% | C[C@H](NC=O)C(=O)N[C@H](C(=O)N[C@@H](Cc1ccccc1)[C@H](O)CNC[C@@H](O)[C@H](Cc1ccccc1)NC(=O)OC(C)(C)C)C(C)(C)C (relative stereo) [Compound 284, [1R*,2S*(2S*,3R*)]-N-[3-[[(1,1-Dimethylethoxy)carbonyl]amino]-2-hydroxy-4-phenylbutyl]amino]-2-hydroxy-1-(phenylmethyl)propyl]-N^2-(N-formyl-L-alanyl)-3-methyl-L-valinamide] | 4400 nM | –
100% | COC(=O)N[C@H](C(=O)N[C@@H](Cc1ccc(OCCc2ccccn2)cc1)[C@H](O)CNC[C@@H](O)[C@H](Cc1ccccc1)NC(=O)OC(C)(C)C)C(C)(C)C (relative stereo) [Compound 297, [1R*,2S*(2S*,3R*)]-N-[3-[[3-[[(1,1-Dimethylethoxy)carbonyl]amino]-2-hydroxy-4-phenylbutyl]amino]-2-hydroxy-1-[[4-[r2-(2-pyridinyl)ethoxy]phenyl]methyl]propyl]-N^2-(2-methoxycarbonyl)-3-methyl-L-valinamide] | 50 nM | –
99% | CC(C)(C)OC(=O)N[C@@H](Cc1ccccc1)[C@H](O)CNC[C@@H](O)[C@H](Cc1ccc(OCCOc2cccnc2)cc1)NC(=O)OC(C)(C)C [Compound 304, [1S-[1R*,2S* (2S*, 3R*)]]-[3-[[3-[[(1,1-Dimethylethoxy)carbonyl]amino]-2-hydroxy-4-[4-[2-(3-pyridinyloxy)ethoxylphenyl]butyl]amino]-2-hydroxy-1-(phenylmethyl)propyl]carbamic acid, 1,1-dimethylethyl ester] | 30 nM | –
100% | CC(C)[C@H](NC(=O)OCc1nc(-c2ccccc2)c[nH]1)C(=O)N[C@@H](Cc1ccccc1)[C@H](O)CNC[C@@H](O)[C@H](Cc1ccccc1)NC(=O)OC(C)(C)C (relative stereo) [Compound 265, [1R*,2S*(2S*,3R*)]-N-[3-[[3-[[(1,1-Dimethylethoxy)carbonyl]amino]-2-hydroxy-4-phenylbutyl]amino]-2-hydroxy-1-(phenylmethyl)propyl]-N^2-[[(4-phenyl-1H-imidazol-2-yl)methoxylcarbonyl]-L-valinamide] | 2600 nM | –
